Columns and labels:
[1] = biological target: Cannabinoid receptor (Rattus norvegicus, UniProt Q9QZN9+P20272); assay: Compound was evaluated for the competitive inhibition of [3H]3-(1,1-Dimethyl-heptyl)-9-hydroxymethyl-6,6-dimethyl-6a,7,8,9,10,10a-hexahydro-6H-benzo[c]chromen-1-ol to cannabinoid receptor from synaptosomal membranes of rat whole brain
[2] = system: Columba livia; assay: Effective dose injected to pigeons in drug discrimination test at a given period of 1.5 hours; type: functional; conditions: in Columbidae
[3] = system: Columba livia; assay: Effective dose injected to pigeons in drug discrimination test at a given period of 4.5 hours; type: functional; conditions: in Columbidae
[4] = system: Columba livia; assay: Effective dose injected to pigeons in drug discrimination test at a given period of 9.0 hours; type: functional; conditions: in Columbidae

Compound	Ki [1]	ED50 [2]	ED50 [3]	ED50 [4]
CCCCCCC(C)(C)c1cc(O)c2c(c1)OC(C)(C)[C@@H]1CC[C@@H](CO)CC21 (some centres not stated)	0.045 nM	5 µg/kg	2 µg/kg	3 µg/kg
CCCCCCC(C)(C)c1cc(O)c2c(c1)OC(C)(C)C1CC=C(CO)CC21 (configuration not stated)	466 nM			
CCCCCCC(C)(C)c1cc(O)c2c(c1)OC(C)(C)[C@@H]1CC=C(CO)CC21 (some centres not stated)	0.181 nM	4 µg/kg	2 µg/kg	2 µg/kg
CCCCCc1cc(O)c2c(c1)OC(C)(C)[C@@H]1CCC(C)=C[C@@H]21 [DRONABINOL]		160 µg/kg	250 µg/kg	1210 µg/kg

From ChEMBL document CHEMBL1126063, “A novel probe for the cannabinoid receptor” (J Med Chem, 1992)
